Reference: ChEMBL document CHEMBL3045787, “Synthesis of novel 1,4-naphthoquinone derivatives: antibacterial and antifungal agents” (2013)
Values after ≈ are worked out from the molar mass of the structure shown. Active and inactive are the calls of the source. The rule behind the calls is not given here.

What was measured:
Staphylococcus aureus [1] = assay: Antibacterial activity against Staphylococcus aureus 209-P assessed as growth inhibition after 24 to 72 hr by serial dilution method; type: functional
Aspergillus niger [2] = assay: Antifungal activity against Aspergillus niger assessed as growth inhibition at 0.1% after 48 to 72 hr by agar disk diffusion method; type: functional
Escherichia coli [3] = assay: Antibacterial activity against Escherichia coli B 906 assessed as growth inhibition after 24 to 72 hr by serial dilution method; type: functional, organism-based
Aspergillus niger [4] = assay: Antifungal activity against Aspergillus niger assessed as growth inhibition at 0.5% after 48 to 72 hr by agar disk diffusion method; type: functional
Yamadazyma tenuis [5] = assay: Antifungal activity against Candida tenuis assessed as growth inhibition at 0.5% after 48 to 72 hr by agar disk diffusion method; type: functional
Yamadazyma tenuis [6] = assay: Antifungal activity against Candida tenuis assessed as growth inhibition at 0.1% after 48 to 72 hr by agar disk diffusion method; type: functional
Yamadazyma tenuis [7] = assay: Antifungal activity against Candida tenuis assessed as growth inhibition after 24 to 72 hr by serial dilution method; type: functional
Mycobacterium [8] = assay: Antibacterial activity against Mycobacterium luteum B-917 assessed as growth inhibition after 24 to 72 hr by serial dilution method; type: functional
Mycobacterium [9] = assay: Antibacterial activity against Mycobacterium luteum B-917 assessed as growth inhibition at 0.5% after 24 hr by agar disk diffusion method; type: functional
Escherichia coli [10] = assay: Antibacterial activity against Escherichia coli B 906 assessed as growth inhibition at 0.5% after 24 hr by agar disk diffusion method; type: functional
Aspergillus niger [11] = assay: Antifungal activity against Aspergillus niger assessed as growth inhibition after 24 to 72 hr by serial dilution method; type: functional
Staphylococcus aureus [12] = assay: Antibacterial activity against Staphylococcus aureus 209-P assessed as growth inhibition at 0.1% after 24 hr by agar disk diffusion method; type: functional
Staphylococcus aureus [13] = assay: Antibacterial activity against Staphylococcus aureus 209-P assessed as growth inhibition at 0.5% after 24 hr by agar disk diffusion method; type: functional
Mycobacterium [14] = assay: Antibacterial activity against Mycobacterium luteum B-917 assessed as growth inhibition at 0.1% after 24 hr by agar disk diffusion method; type: functional
Escherichia coli [15] = assay: Antibacterial activity against Escherichia coli B 906 assessed as growth inhibition at 0.1% after 24 hr by agar disk diffusion method; type: functional

| SMILES | MIC (Staphylococcus aureus [1]) | diameter of the inhibition zone (DIZ) (Aspergillus niger [2]) [mm] | MIC (Escherichia coli [3]) | diameter of the inhibition zone (DIZ) (Aspergillus niger [4]) [mm] | diameter of the inhibition zone (DIZ) (Yamadazyma tenuis [5]) [mm] | diameter of the inhibition zone (DIZ) (Yamadazyma tenuis [6]) [mm] | MIC (Yamadazyma tenuis [7]) | MIC (Mycobacterium [8]) | diameter of the inhibition zone (DIZ) (Mycobacterium [9]) [mm] | diameter of the inhibition zone (DIZ) (Escherichia coli [10]) [mm] | MIC (Aspergillus niger [11]) | diameter of the inhibition zone (DIZ) (Staphylococcus aureus [12]) [mm] | diameter of the inhibition zone (DIZ) (Staphylococcus aureus [13]) [mm] | diameter of the inhibition zone (DIZ) (Mycobacterium [14]) [mm] | diameter of the inhibition zone (DIZ) (Escherichia coli [15]) [mm] |
| --- | --- | --- | --- | --- | --- | --- | --- | --- | --- | --- | --- | --- | --- | --- | --- |
| O=C1C(SCCOc2ccccc2)=C(SCCOc2ccccc2)C(=O)c2ccccc21 | inactive | 0 | inactive | 0 | 0 | 0 | 125 µg/mL (≈ 270 µM) | inactive | 8 | 0 | 7.8 µg/mL (≈ 16.9 µM) | 0 | 0 | 0 | 0 |
| O=C1C(SCc2ccc(Cl)cc2)=C(N2CCCCC2)C(=O)c2ccccc21 | inactive | 0 | inactive | 0 | 0 | 0 | inactive | 250 µg/mL (≈ 628 µM) | 9 | 0 | inactive | 0 | 0 | 0 | 0 |
